Measured values reported in patent US20100168102A9, “Amide Derivatives as Kinase Inhibitors” (Devgen NV, priority 2005, published 2010).
Where two headings read alike, the source gives them in different places.

Tests used:
PKC epsilon = molecular target: T1, PKC epsilon (Homo sapiens, UniProt Q02156); assay: Biochemical assay for PKC epsilon (fluorescence polarization, Protein Kinase C Assay Kit, Red); conditions: read-out: IC50 μM PKCε
T1 construct: purchased Invitrogen P2282
T1 sequence (Q02156 1-737): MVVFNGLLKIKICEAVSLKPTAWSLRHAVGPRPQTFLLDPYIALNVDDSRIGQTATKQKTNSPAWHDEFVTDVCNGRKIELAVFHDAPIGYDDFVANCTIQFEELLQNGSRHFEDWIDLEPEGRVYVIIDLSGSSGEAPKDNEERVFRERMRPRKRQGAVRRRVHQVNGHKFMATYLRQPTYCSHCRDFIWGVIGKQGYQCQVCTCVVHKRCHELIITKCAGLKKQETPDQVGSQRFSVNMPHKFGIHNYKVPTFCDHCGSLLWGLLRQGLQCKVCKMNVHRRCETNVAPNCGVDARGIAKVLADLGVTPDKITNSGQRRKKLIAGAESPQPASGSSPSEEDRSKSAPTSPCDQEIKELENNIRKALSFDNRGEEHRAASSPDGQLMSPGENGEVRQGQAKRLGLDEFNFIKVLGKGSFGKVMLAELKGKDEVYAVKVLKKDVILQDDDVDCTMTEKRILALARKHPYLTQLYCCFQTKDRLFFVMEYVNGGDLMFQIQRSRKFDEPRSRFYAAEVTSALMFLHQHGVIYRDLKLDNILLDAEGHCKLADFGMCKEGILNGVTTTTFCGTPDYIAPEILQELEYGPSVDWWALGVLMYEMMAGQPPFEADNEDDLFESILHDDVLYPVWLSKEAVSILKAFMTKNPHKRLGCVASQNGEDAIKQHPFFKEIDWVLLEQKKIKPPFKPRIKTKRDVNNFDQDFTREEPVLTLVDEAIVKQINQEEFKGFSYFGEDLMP
Procedure, shortened: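 Read-out was fluorescence-polarization competition between phosphorylated substrate and a rhodamine PKC tracer for an anti-phosphoserine antibody, added with EDTA stop after an 80 min room-temperature kinase reaction with ATP and protein substrate (Mg2+/Ca2+ buffer). Enzyme (10 ng/ml final) was preincubated with compound for 30 min.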

human ROCKα/ROCKII mix = molecular target: T2, human ROCKα/ROCKII mix (Homo sapiens, UniProt O75116); assay: Biochemical assay for ROCK (fluorescence polarization, ROCK IMAP Kit)
T2 construct: purchased Upstate Biotechnology 14-451

[1] = compounds of Formula XIV, Table 3
[2] = Table 2, compounds of Formula XIII

T2 sequence (O75116 11-552 limits assumed): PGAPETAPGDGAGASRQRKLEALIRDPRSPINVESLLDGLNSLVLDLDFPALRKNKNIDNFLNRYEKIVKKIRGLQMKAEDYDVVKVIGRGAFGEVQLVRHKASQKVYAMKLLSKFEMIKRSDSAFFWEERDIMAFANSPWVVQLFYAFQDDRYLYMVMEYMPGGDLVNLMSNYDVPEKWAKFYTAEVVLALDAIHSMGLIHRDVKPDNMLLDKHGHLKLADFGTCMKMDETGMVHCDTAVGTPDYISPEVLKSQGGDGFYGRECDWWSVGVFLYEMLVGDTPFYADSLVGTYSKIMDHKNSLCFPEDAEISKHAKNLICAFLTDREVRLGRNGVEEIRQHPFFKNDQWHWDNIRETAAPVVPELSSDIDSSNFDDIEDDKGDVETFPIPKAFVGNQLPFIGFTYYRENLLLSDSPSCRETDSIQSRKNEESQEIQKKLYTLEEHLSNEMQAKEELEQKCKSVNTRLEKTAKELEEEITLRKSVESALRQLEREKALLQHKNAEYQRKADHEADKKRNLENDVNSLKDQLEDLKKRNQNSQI

| Compound | IC50 (PKC epsilon; [1]) | IC50 (human ROCKα/ROCKII mix; [1]) | IC50 (PKC epsilon; [2]) | IC50 (human ROCKα/ROCKII mix; [2]) | IC50 (PKC epsilon) | IC50 (human ROCKα/ROCKII mix) |
| --- | --- | --- | --- | --- | --- | --- |
| 4-[1-amino-2-(2-morpholin- 4-yl-ethylcarbamoyl)-ethyl]- N-pyridin-4-yl-benzamide [Compound 177] | 5 to 50 µM | 0.05 to 0.5 µM | – | – | – | – |
| 4-{1-Amino-2-[(3-methyl- cyclohexanecarbonyl)-amino]-ethyl}- N-pyridin-4-yl-benzamide [Compound 45] | – | – | 0.5 to 5 µM | 0.5 to 5 µM | – | – |
| COc1ccc(C(=O)NCC(N)c2ccc(C(=O)Nc3ccncc3)cc2)cc1 (stereo not shown) [Compound 74, 4-[1-amino-2-(4-methoxy-benzoylamino)-ethyl]-N-pyridin-4-yl-benzamide] | – | – | 5 to 50 µM | 0.5 to 5 µM | – | – |
| CCNC(=S)NCC(N)c1ccc(C(=O)Nc2ccncc2)cc1 (stereo not shown) [Compound 1, 4-[1-amino-2-(3-ethyl-thioureido)-ethyl]-N-pyridin-4-yl-benzamide] | – | – | – | – | 0.5 to 5 µM | 0.5 to 5 µM |
| CC(C)(C(=O)NCC(N)c1ccc(C(=O)Nc2ccncc2)cc1)c1ccc(F)cc1Cl (stereo not shown) [Compound 386, 4-{1-Amino-2-[2-(2-chloro-4-fluoro-phenyl)-2-methyl-propionylamino]-ethyl}-N-pyridin-4-yl-benzamide] | – | – | < 0.05 µM | 0.05 to 0.5 µM | – | – |
| CC(=NOC(C)(C)C)c1ccc(C(=O)NCC(N)c2ccc(C(=O)Nc3ccncc3)cc2)s1 (stereo not shown) [Compound 118, 5-(1-tert-Butoxyimino-ethyl)-thiophene-2-carboxylic acid {2-amino-2-[4-(pyridin-4-ylcarbamoyl)-phenyl]-ethyl}-amide] | – | – | 5 to 50 µM | 0.5 to 5 µM | – | – |
| NC(c1ccc(C(=O)Nc2ccncc2)cc1)C1CCCN1C(=O)C1CCc2cc(F)ccc21 (stereo not shown) [Compound 610, 4-{Amino-[1-(5-fluoro-indane-1-carbonyl)-pyrrolidin-2-yl]-methyl}-N-pyridin-4-yl-benzamide] | – | – | – | – | 5 to 50 µM | 0.5 to 5 µM |
| CCCCNC(=O)NCC(N)c1ccc(C(=O)Nc2ccncc2)cc1 (stereo not shown) [Compound 2, 4-[1-amino-2-(3-butyl-ureido)-ethyl]-N-pyridin-4-yl-benzamide] | – | – | – | – | 0.5 to 5 µM | 0.5 to 5 µM |
| CCCOc1ccc(C(=O)NCC(N)c2ccc(C(=O)Nc3ccncc3)cc2)cc1 (stereo not shown) [Compound 75, 4-[1-amino-2-(4-propoxy-benzoylamino)-ethyl]-N-pyridin-4-yl-benzamide] | – | – | 5 to 50 µM | 0.5 to 5 µM | – | – |
| NC(CC(=O)NNC(=O)c1ccco1)c1ccc(C(=O)Nc2ccncc2)cc1 (stereo not shown) [Compound 325, 4-{1-amino-3[N′-(furan-2-carbonyl)-hydrazino]-3-oxo-propyl}-N-pyridin-4-yl-benzamide] | 0.5 to 5 µM | 0.05 to 0.5 µM | – | – | – | – |
| NC(CNC(=O)c1cccs1)c1ccc(C(=O)Nc2ccncc2)cc1 (stereo not shown) [Compound 116, Thiophene-2-carboxylic acid {2-amino-2-[4-(pyridin-4-ylcarbamoyl)-phenyl]-ethyl}-amide] | – | – | 0.05 to 0.5 µM | 0.05 to 0.5 µM | – | – |
| COc1ccc(CNC(=O)CC(N)c2ccc(C(=O)Nc3ccncc3)cc2)cc1 (stereo not shown) [Compound 239, 4-[1-Amino-2-(4-methoxy-benzylcarbamoyl)-ethyl]-N-pyridin-4-yl-benzamide] | 0.5 to 5 µM | 0.05 to 0.5 µM | – | – | – | – |
| N#CCCN(C(=O)CC(N)c1ccc(C(=O)Nc2ccncc2)cc1)C1CC1 (stereo not shown) [Compound 178, 4-{1-amino-2-[(2-cyano-ethyl)-cyclopropyl-carbamoyl]-ethyl}-N-pyridin-4-yl-benzamide] | 5 to 50 µM | 0.5 to 5 µM | – | – | – | – |
| Cc1ccc(CN2CCC(NC(=O)CC(N)c3ccc(C(=O)Nc4ccncc4)cc3)CC2)s1 (stereo not shown) [Compound 202] | 0.5 to 5 µM | 0.05 to 0.5 µM | – | – | – | – |
| 4-[1-amino-2-(4-methyl- cyclohexylcarbamoyl)-ethyl]- N-pyridin-4-yl-benzamide [Compound 173] | 0.5 to 5 µM | 0.05 to 0.5 µM | – | – | – | – |
| NC(c1ccc(C(=O)Nc2ccncc2)cc1)C1CCCN1C(=O)C1(c2ccc(Cl)cc2F)CC1 (stereo not shown) [Compound 605, 4-(Amino-{1-[1-(4-chloro-2-fluoro-phenyl)-cyclopropanecarbonyl]-pyrrolidin-2-yl}-methyl)-N-pyridin-4-yl-benzamide] | – | – | – | – | 0.5 to 5 µM | 0.5 to 5 µM |

| Compound | IC50 (PKC epsilon; [1]) | IC50 (human ROCKα/ROCKII mix; [1]) | IC50 (PKC epsilon; [2]) | IC50 (human ROCKα/ROCKII mix; [2]) | IC50 (PKC epsilon) | IC50 (human ROCKα/ROCKII mix) |
| --- | --- | --- | --- | --- | --- | --- |
| NC(CNC(=O)c1ccc(C(=O)c2ccccc2)cc1)c1ccc(C(=O)Nc2ccncc2)cc1 (stereo not shown) [Compound 100, 4-[1-amino-2-(4-benzoyl-benzoylamino)-ethyl]-N-pyridin-4-yl-benzamide] | – | – | 5 to 50 µM | 0.5 to 5 µM | – | – |
| NC(c1ccc(C(=O)Nc2ccncc2)cc1)C1CCCN1C(=O)Cc1c[nH]c2ccccc12 (stereo not shown) [Compound 544, 4-{Amino-[1-(2-1H-indol-3-yl-acetyl)-pyrrolidin-2-yl]-methyl}-N-pyridin-4-yl-benzamide] | – | – | – | – | 0.5 to 5 µM | 0.5 to 5 µM |
| COc1ccc(C2(C(=O)N3CCCC3C(N)c3ccc(C(=O)Nc4ccncc4)cc3)CCCC2)cc1 (stereo not shown) [Compound 530, 4-(Amino-{1-[1-(4-methoxy-phenyl)-cyclopentanecarbonyl]-pyrrolidin-2-yl}-methyl)-N-pyridin-4-yl-benzamide] | – | – | – | – | 0.5 to 5 µM | 0.5 to 5 µM |
| NC(CC(=O)NC1CCc2ccccc21)c1ccc(C(=O)Nc2ccncc2)cc1 (stereo not shown) [Compound 228, 4-[1-Amino-2-(indan-1-ylcarbamoyl)-ethyl]-N-pyridin-4-yl-benzamide] | 0.05 to 0.5 µM | 0.05 to 0.5 µM | – | – | – | – |
| NC(c1ccc(C(=O)Nc2ccncc2)cc1)C1CCCN1C(=O)C1(c2ccc(Cl)c(Cl)c2)CC1 (stereo not shown) [Compound 594, 4-(Amino-{1-[1-(3,4-dichloro-phenyl)-cyclopropanecarbonyl]-pyrrolidin-2-yl}-methyl)-N-pyridin-4-yl-benzamide] | – | – | – | – | 0.5 to 5 µM | 0.5 to 5 µM |
| COc1ccc(CC(=O)N2CCCC2C(N)c2ccc(C(=O)Nc3ccncc3)cc2)cc1F (stereo not shown) [Compound 571, 4-(Amino-{1-[2-(3-fluoro-4-methoxy-phenyl)-acetyl]-pyrrolidin-2-yl}-methyl)-N-pyridin-4-yl-benzamide] | – | – | – | – | 5 to 50 µM | 0.5 to 5 µM |
| NC(c1ccc(C(=O)Nc2ccncc2)cc1)C1CCCN1C(=O)Cc1ccc(F)cc1F (stereo not shown) [Compound 580, 4-(Amino-{1-[2-(2,4-difluoro-phenyl)-acetyl]-pyrrolidin-2-yl}-methyl)-N-pyridin-4-yl-benzamide] | – | – | – | – | 0.5 to 5 µM | 0.05 to 0.5 µM |
| NC(c1ccc(C(=O)Nc2ccncc2)cc1)C1CCCN1C(=O)Cc1ccc(-c2ccccc2)cc1 (stereo not shown) [Compound 537, 4-{Amino-[1-(2-biphenyl-4-yl-acetyl)-pyrrolidin-2-yl]-methyl}-N-pyridin-4-yl-benzamide] | – | – | – | – | 0.5 to 5 µM | 0.5 to 5 µM |
| NC(CNC(=O)Cc1ccncc1)c1ccc(C(=O)Nc2ccncc2)cc1 (stereo not shown) [Compound 151, 4-[1-Amino-2-(2-pyridin-4-yl-acetylamino)-ethyl]-N-pyridin-4-yl-benzamide] | – | – | 5 to 50 µM | 0.5 to 5 µM | – | – |
| CC(C)(C(=O)NCC(N)c1ccc(C(=O)Nc2ccncc2)cc1)c1ccc(F)cc1F (stereo not shown) [Compound 384, 4-{1-Amino-2-[2-(2,4-difluoro-phenyl)-2-methyl-propionylamino]-ethyl}-N-pyridin-4-yl-benzamide] | – | – | < 0.05 µM | 0.05 to 0.5 µM | – | – |
| NC(CC(=O)Nc1ccc2[nH]ccc2c1)c1ccc(C(=O)Nc2ccncc2)cc1 (stereo not shown) [Compound 321, 4-[1-Amino-2-(1H-indol-5-ylcarbamoyl)-ethyl]-N-pyridin-4-yl-benzamide] | 0.5 to 5 µM | 0.05 to 0.5 µM | – | – | – | – |
| Cc1cc(Cl)ccc1OC(C)C(=O)NCC(N)c1ccc(C(=O)Nc2ccncc2)cc1 (stereo not shown) [Compound 159, 4-{1-Amino-2-[2-(4-chloro-2-methyl-phenoxy)-propionylamino]-ethyl}-N-pyridin-4-yl-benzamide] | – | – | 0.5 to 5 µM | 0.05 to 0.5 µM | – | – |
| NC(CNC(=O)c1ccc(Oc2ccccc2)cc1)c1ccc(C(=O)Nc2ccncc2)cc1 (stereo not shown) [Compound 78, 4-[1-amino-2-(4-phenoxy-benzoylamino)-ethyl]-N-pyridin-4-yl-benzamide] | – | – | 5 to 50 µM | 0.5 to 5 µM | – | – |
| CC(CNC(=O)CC(N)c1ccc(C(=O)Nc2ccncc2)cc1)c1ccc(Cl)cc1 (stereo not shown) [Compound 301, 4-{1-Amino-2-[2-(4-chloro-phenyl)-propylcarbamoyl]-ethyl}-N-pyridin-4-yl-benzamide] | 0.05 to 0.5 µM | 0.05 to 0.5 µM | – | – | – | – |
| NC(CC(=O)NC1CCN(Cc2ccccc2)CC1)c1ccc(C(=O)Nc2ccncc2)cc1 (stereo not shown) [Compound 200, 4-[1-amino-2-(1-benzyl-piperidin-4-ylcarbamoyl)-ethyl]-N-pyridin-4-yl-benzamide] | 0.5 to 5 µM | 0.05 to 0.5 µM | – | – | – | – |
| NC(c1ccc(C(=O)Nc2ccncc2)cc1)C1CCCN1C(=O)C1(c2ccc(Cl)cc2)CCCC1 (stereo not shown) [Compound 566, 4-(Amino-{1-[1-(4-chloro-phenyl)-cyclopentanecarbonyl]-pyrrolidin-2-yl}-methyl)-N-pyridin-4-yl-benzamide] | – | – | – | – | 0.5 to 5 µM | 0.5 to 5 µM |
